Data reported in patent publication US6323205A (priority 2000, dated 2001).

How the values were obtained:
[1] = tested on: TSU-PR1 (human prostate); test: Antitumor activity in TSU-PR1 tumor model in mice (Example 11)
Text: (§1) The tumor volume at the time of initial treatment was 14-19 mm^3.

[2] = tested on: LX-1 (human lung); test: Antitumor activity in LX-1 tumor model in mice (Example 11)
Text: as §1

[3] = tested on: PC-3 (human prostate); test: Antitumor activity in PC-3 tumor model in mice (Example 11); settings: PC3, dose PDX 60, TXL 25, PDX + TXL 45 + 16
Text: as §1

[4] = tested on: LX-1 lung tumor; test: Antitumor activity against LX-1 lung tumor in nude mice (Example 10, combinations); type: in vivo, human tumor xenograft in nude mice; settings: for Avg Tumor Diameter: 4 treatments, mg/kg: EDX 40, PDX 60, TXL 25, TXT 20, PDX+TXL 45+18, PDX+TXT 45+15, 'then' = taxane 24 h later; for Change in Tumor Volume: from starting point of 83 mg, 3 to 4 days after treatment end
[5] = tested on: human LX-1 lung cancer; test: Antitumor activity against xenografts of human LX-1 lung cancer in nude mice (Example 3); type: in vivo, human tumor xenograft in nude mice; settings: Example 2 protocol, tumor free three weeks after therapy
[6] = tested on: human MX-1 mammary carcinoma; test: Antitumor activity against xenografts of human MX-1 mammary carcinoma in nude mice; settings: same doses, no measurable tumor at day 14, mice/mice tested
[7] = Phase II clinical trial, tumor responses; type: in vivo, human patients; settings: 150 mg/m^2 biweekly
Text: To date, the first six patients have received at least one cycle of treatments. […] Specifically, three patients enrolled in the study had measurable disease.

[8] = dose PDX 60, TXL 25, PDX + TXL 45 + 16
[9] = dose PDX 60, TXL 25, PDX + TXL 45 + 16, initial volume 14-19 mm^3

## CC(=O)O[C@H]1C(=O)[C@@]2(C)[C@H]([C@H](OC(=O)c3ccccc3)[C@]3(O)C[C@H](OC(=O)[C@H](O)[C@@H](NC(=O)c4ccccc4)c4ccccc4)C(C)=C1C3(C)C)[C@]1(OC(C)=O)CO[C@@H]1C[C@@H]2O [TXL, paclitaxel, reference compound]
[1]; [8]
  Avg Tumor Diameter: 3.2 ± 0.3 mm
  Tumor Free Mice: 0/6
[1]; [9]
  Change in Tumor Volume: 0
[2]; [8]
  Avg Tumor Diameter: 11.6 ± 1 mm
  Tumor Free Mice: 0/6
[2]; [9]
  Change in Tumor Volume: +803
[3]
  Avg Tumor Diameter: 4.3 ± 0.3 mm
  Tumor Free Mice: 0/6
[3]; initial volume 14-19 mm^3
  Change in Tumor Volume: +26
[4]
  Avg Tumor Diameter: 6.2 ± 2 mm
[4]; same doses
  Change in Tumor Volume: +42 mg
[4]; same doses, mice/mice treated
  Tumor Free Mice at 3-4 days: 0/10

## CN(Cc1cnc2nc(N)nc(N)c2n1)c1ccc(C(=O)N[C@@H](CCC(=O)O)C(=O)O)cc1 [MTX, methotrexate, reference compound]
[5]
  Cures: 0/10
[6]
  Complete Regressions: no regressions

## C#CCC(Cc1cnc2nc(N)nc(N)c2n1)c1ccc(C(=O)N[C@@H](CCC(=O)O)C(=O)O)cc1 (stereo partly drawn) [10-propargyl-10-deazaaminopterin]
[7]
  response of fourth patient (evaluable disease): objective improvement in disease parameters
[7]; of first six patients
  patients with major responses: four have demonstrated major responses
[7]; three patients with measurable disease
  reduction in tumor diameter (lung scans): at least 50%

## CC(=O)O[C@@]12CO[C@@H]1C[C@H](O)[C@@]1(C)C(=O)[C@H](O)C3=C(C)[C@@H](OC(=O)[C@H](O)[C@@H](NC(=O)OC(C)(C)C)c4ccccc4)C[C@@](O)([C@@H](OC(=O)c4ccccc4)[C@H]21)C3(C)C [TXT, docetaxel]
[4]
  Avg Tumor Diameter: 6.0 ± 2 mm
[4]; same doses
  Change in Tumor Volume: +34 mg
[4]; same doses, mice/mice treated
  Tumor Free Mice at 3-4 days: 1/10
  Tumor Free Mice at 28 days: 0/10

## CCC(Cc1cnc2nc(N)nc(N)c2n1)c1ccc(C(=O)N[C@@H](CCC(=O)O)C(=O)O)cc1 (stereo partly drawn) [EDX, edatrexate]
[4]
  Avg Tumor Diameter: 6.6 ± 2 mm
[4]; same doses
  Change in Tumor Volume: +102 mg
[4]; same doses, mice/mice treated
  Tumor Free Mice at 3-4 days: 0/10
